# Entries after “also recorded” stand apart in the source; their conditions may differ.
# Experiments:
# [1] = test system: LCMV-induced NF-κB activity; test: cells; format: cell-based, human; settings: for IC50: Homo sapiens, HEK293, read-out: 50% Inhibitory Dose
# TLR2 = format: cell-based, human
# [2] = test system: Rift Valley Fever Virus (RVFV); format: cell-based
# LCMV [3] = format: cell-based, lymphocytic choriomeningitis virus (LCMV)
# LCMV-Arm [4] = format: in vivo, C57BL/6 mice
# [5] = test system: cytokine responses in mouse primary macrophages; format: cell-based
# [6] = test system: TNF-α-induced IL-8 production; format: cell-based, human
# HSV-1 = HSV-1 (VP16-GFP strain) replication in Vero cells, GFP fluorescence; format: cell-based, Herpes simplex virus 1 (HSV-1); settings: 24 hours, dose-dependent manner
# [7] = test system: IL-8 production in primary human monocytes; format: cell-based
# [8] = Preliminary toxicity observation in mice; settings: injected intravenously at 16.67 mg/kg (200 μg/mouse)
# Tacaribe virus (TCRV) = format: cell-based
# HLA-ABC = format: cell-based, human
# LCMV [9] = format: cell-based, lymphocytic choriomeningitis virus (LCMV); settings: 3.3 μM
# LCMV-Arm [10] = format: cell-based, lymphocytic choriomeningitis virus (LCMV)
# [11] = test system: LCMV-induced IL-8 production; format: cell-based, human
# [12] = test system: Pam2CSK4 (TLR2 ligand) and LPS (TLR4 ligand) induced cytokine production; parameters: species or system C57BL/6 mice; settings: mouse
# [13] = test system: TNF-α-induced NF-κB activity; format: cell-based, human
# [14] = test system: HSV-induced NF-κB activation; test: HSV-induced NF-κB luciferase assay in SZ10 cells; format: cell-based, human; settings: HSV-1 7134R
smiles,measurement,setting,value
"O=C(/C=C/c1ccc(O)c(O)c1)OCCc1ccccc1 [CAPE, reference compound]",LCMV-induced NF-κB activation,[1],effectively blocked
CC1CCN(Cc2ccc(NC(=O)NCc3noc4ccccc34)cc2)CC1 [Compound 100],LCMV-induced enhanced expression of TLR2,TLR2,specifically prevented
same,TNF-α-induced expression of TLR2,TLR2,did not affect
same,activity against RVFV,[2],no role
same,LCMV replication (expression of LCMV-NP) in SZ10 cells,LCMV [3],significantly inhibited; also recorded: dramatically inhibited
same,LCMV replication in HEK cells that did not express TLR2,LCMV [3],could also inhibit
same,levels of virus in the spleen,"LCMV-Arm [4]; 48 h post-infection, n=8, p<0.05 vs DMSO-treated or untreated mice",significantly lower
same,LCMV-induced inflammation in a mouse model,"LCMV-Arm [4]; Example 13, i.v. 16.67 mg/kg (200 μg/mouse), serum MCP-1",Inhibits
same,LCMV induced MCP-1 production in serum,"LCMV-Arm [4]; single dose 400 μg/mouse (16 mg/kg), 18 h post-infection, vs DMSO",significant decrease
same,LCMV induced type I IFN production,"LCMV-Arm [4]; single dose 400 μg/mouse, 18 h post-infection",did not affect
same,% Inhibition,[1],80%
same,LCMV-induced NF-κB activity,[1],dramatically inhibited
same,LCMV-induced NF-κB activity and cytokine response,[1],specifically inhibit
same,IC50,[1],1000 nM
same,HSV-1 induced MCP-1 production,[5],efficiently blocked
same,HSV-1 induced RANTES production,[5],efficiently blocked
same,LCMV induced production of MCP-1,[5],significantly inhibited
same,LCMV induced production of RANTES,[5],significantly inhibited
same,LPS induced MCP-1 production,[5],inhibited
same,Pam2CSK4 induced MCP-1 production,[5],inhibited
same,Pam2CSK4 induced RANTES in vitro in macrophages,[5],inhibit
same,poly IC induced production of MCP-1,[5],did not affect
same,poly IC induced production of RANTES,[5],did not affect
same,TNF-α-induced IL-8 production,[6],did not affect
same,HSV-1 replication,HSV-1,inhibits
same,LCMV induced IL-8 production,[7],"significant (p<0,01 by two-tailed Student's t test) reduction"
same,poly IC induced production of IL-8,[7],did not affect
same,recombinant human TNF-α induced production of IL-8,[7],did not affect
same,toxic effect in mice,[8],no apparent toxic effect
same,replication and production of TCRV,Tacaribe virus (TCRV),can inhibit
same,expression of HLA-ABC,HLA-ABC,did not affect; also recorded: not affected
same,LCMV replication in Vero cells,LCMV [9],significantly inhibited
same,LCMV replication in BHK-21 cells,LCMV-Arm [10],inhibited
same,LCMV-induced IL-8 production,[11],dramatically inhibited
same,LPS induced IL-6 induction in vivo,[12],inhibits
same,Pam2CSK4 induced IL-6 induction in vivo,[12],inhibits
same,LPS induced IL-6 production in serum,"[12]; in vivo, iv",significantly blocked
same,LPS induced MCP-1 production in serum,"[12]; in vivo, iv",significantly blocked
same,LPS-induced RANTES production in serum,"[12]; in vivo, iv",did not affect
same,Pam2CSK4-induced RANTES production in serum,"[12]; in vivo, iv",did not affect
same,Pam2CSK4 induced IL-6 production in serum,"[12]; in vivo, iv",significantly blocked
same,Pam2CSK4 induced MCP-1 production in serum,"[12]; in vivo, iv",significantly blocked
same,TNF-α-induced NF-κB activity,[13],did not affect
same,HSV-induced NF-κB activation,[14],Blocks
Cc1ccc2onc(CNC(=O)Nc3ccc(CN4CCC(C)CC4)cc3)c2c1 [Compound 101],% Inhibition,[1],60%
same,IC50,[1],1600 nM
Cc1ccc2onc(CNC(=O)Nc3cccc(C(F)(F)F)c3)c2c1 [Compound 102],% Inhibition,[1],27%
same,IC50,[1],> 6600 nM
O=C(NCc1noc2ccccc12)Nc1cccc(Cl)c1 [Compound 103],% Inhibition,[1],26%
same,IC50,[1],> 6600 nM
COc1cccc(NC(=O)NCc2noc3ccccc23)c1 [Compound 105],% Inhibition,[1],20%
same,IC50,[1],> 6600 nM
COC(=O)c1ccc(NC(=O)NCc2noc3ccccc23)cc1 [Compound 106],% Inhibition,[1],75%
same,IC50,[1],1600 nM
CC1CCN(Cc2ccc(NC(=O)Nc3cccs3)cc2)CC1 [Compound 107],% Inhibition,[1],47%
same,IC50,[1],3000 nM
CC1CCN(Cc2ccc(NC(=O)Nc3cn(C)c(=O)c4ccccc34)cc2)CC1 [Compound 108],% Inhibition,[1],39%
same,IC50,[1],> 6600 nM
Cc1ccc2onc(CNC(=O)Nc3ccccc3N3CCN(C)CC3)c2c1 [Compound 109],% Inhibition,[1],39%
same,IC50,[1],> 6600 nM
O=C(NCCc1ccccc1)c1nnc(-c2cccnc2)o1 [Compound 110],% Inhibition,[1],40%
same,IC50,[1],> 6600 nM
COc1cc(CCNC(=O)c2nnc(-c3cccnc3)o2)cc(OC)c1 [Compound 112],% Inhibition,[1],65%
same,IC50,[1],400 nM
CCc1ccc(CCNC(=O)c2nnc(-c3cccnc3)o2)cc1 [Compound 113],% Inhibition,[1],30%
same,IC50,[1],> 6600 nM
O=C(NCCc1ccc(O)cc1)c1nnc(-c2cccnc2)o1 [Compound 114],% Inhibition,[1],31%
same,IC50,[1],> 6600 nM
O=C(NCCc1ccc(O)c(O)c1)c1nnc(-c2cccnc2)o1 [Compound 115],% Inhibition,[1],40%
same,IC50,[1],> 6600 nM
O=C(NCCc1ccc(-c2ccccc2)cc1)c1nnc(-c2cccnc2)o1 [Compound 116],% Inhibition,[1],50%
same,IC50,[1],800 nM
COc1ccc(CCC(C)NC(=O)c2nnc(-c3cccnc3)o2)cc1 (centres unmarked) [Compound 117],% Inhibition,[1],27%
same,IC50,[1],> 6600 nM
O=C(NCCc1cccc(Cl)c1)c1nnc(-c2cccnc2)o1 [Compound 118],% Inhibition,[1],50%
same,IC50,[1],3300 nM
CCOc1ccc(CCNC(=O)c2nc(-c3cccnc3)no2)cc1 [Compound 120],% Inhibition,[1],75%
same,LCMV-induced NF-κB activity and cytokine response,[1],specifically inhibit
same,IC50,[1],800 nM
O=C(NCc1cccnc1)c1ccc(CSCc2cccc(F)c2)o1 [Compound 121],% Inhibition,[1],60%
same,LCMV-induced NF-κB activity and cytokine response,[1],specifically inhibit
same,IC50,[1],800 nM
O=C(COCc1cc(-c2ccco2)on1)Nc1cccnc1 [Compound 122],% Inhibition,[1],50%
same,LCMV-induced NF-κB activity and cytokine response,[1],specifically inhibit
same,IC50,[1],3300 nM
same,Pam2CSK4 induced RANTES in vitro in macrophages,[5],inhibit
O=C(CCS(=O)(=O)c1nc(-c2ccc3c(c2)OCO3)cc(C(F)(F)F)n1)Nc1ccc(OC(F)(F)F)cc1 [Compound 125],% Inhibition,[1],60%
same,LCMV-induced NF-κB activity and cytokine response,[1],specifically inhibit
same,IC50,[1],800 nM
COc1ccc(C2C3=C(CCCC3=O)Nc3[nH]nc(-c4ccc(Cl)cc4)c32)cc1OC (centres unmarked) [Compound 132],% Inhibition,[1],75%
same,LCMV-induced NF-κB activity and cytokine response,[1],specifically inhibit
same,IC50,[1],800 nM
O=C1CC(c2ccc(F)cc2)CC2=C1C=Nc1ccccc1N2 (centres unmarked) [Compound 133],% Inhibition,[1],60%
same,LCMV-induced NF-κB activity and cytokine response,[1],specifically inhibit
same,IC50,[1],800 nM
O=C(CN(C1=NC2CS(=O)(=O)CC2S1)c1ccc(F)cc1)Nc1ccccc1C(F)(F)F (centres unmarked) [Compound 134],% Inhibition,[1],50%
same,LCMV-induced NF-κB activity and cytokine response,[1],specifically inhibit
same,IC50,[1],1600 nM
O=C(Nc1cccnc1)c1ccc(NC(=O)C2OCCc3ccccc32)cc1 (centres unmarked) [Compound 135],% Inhibition,[1],60%
same,LCMV-induced NF-κB activity and cytokine response,[1],specifically inhibit
same,IC50,[1],800 nM
"COc1cc(/C=C/C(=O)CC(=O)/C=C/c2ccc(O)c(OC)c2)ccc1O [Curcumin, reference compound]",LCMV-induced NF-κB activation,[1],effectively blocked
"C=C1C(=O)O[C@@H]2C[C@@H](C)[C@@H]3C=CC(=O)[C@@]3(C)[C@@H](O)[C@H]12 [Helenalin, reference compound]",LCMV-induced NF-κB activation,[1],effectively blocked
"CC(C)[C@]12O[C@H]1[C@@H]1O[C@]13[C@]1(O[C@H]1C[C@H]1C4=C(CC[C@@]13C)C(=O)OC4)[C@@H]2O [Triptolide, reference compound]",LCMV-induced NF-κB activation,[1],effectively blocked

# From patent US8609663B2, “Compounds for modulating TLR2” (priority 2009, dated 2013)
